Converted amounts (≈) assume the structure as drawn. Bounds are passed on as bounds.

For assay [1], the system named is Pseudomonas aeruginosa. In words: Antibacterial activity against Pseudomonas aeruginosa NY219 by broth dilution method. Type of assay: functional. For orientation: In broth dilution the organism is exposed to a series of concentrations in liquid medium.
Assay [2] relates to Pseudomonas aeruginosa. In words: Antibacterial activity against Pseudomonas aeruginosa NY215 by broth dilution method. It counts as functional.
Assay [3] concerns Pseudomonas aeruginosa. In words: Antibacterial activity against Pseudomonas aeruginosa NY220 by broth dilution method. Type of assay: functional.
Assay [4] concerns Pseudomonas aeruginosa. The experiment in a line: Antibacterial activity against Pseudomonas aeruginosa PAO1 by broth dilution method. Type of assay: functional.
In assay [5] the test system is Pseudomonas aeruginosa. In words: Antibacterial activity against Pseudomonas aeruginosa NY217 by broth dilution method. It counts as functional.
Assay [6] relates to Pseudomonas aeruginosa. The experiment in a line: Antibacterial activity against Pseudomonas aeruginosa NY214 by broth dilution method. Type of assay: functional.
In assay [7] the test system is Pseudomonas aeruginosa. The experiment in a line: Antibacterial activity against Pseudomonas aeruginosa NY219 harboring pUCP18 by broth dilution method. Type of assay: functional, organism-based.
Assay [8] concerns Pseudomonas aeruginosa. The experiment in a line: Antibacterial activity against Pseudomonas aeruginosa NY220 harboring Pseudomonas aeruginosa PAO1 phoPQ gene by broth dilution method. It counts as functional, organism-based.
The test system of assay [9] is Pseudomonas aeruginosa. The experiment in a line: Antibacterial activity against Pseudomonas aeruginosa NY220 harboring pUCP18 by broth dilution method. It counts as functional, organism-based.
In assay [10] the test system is Pseudomonas aeruginosa. In words: Antibacterial activity against Pseudomonas aeruginosa NY215 harboring arnB::TC by broth dilution method. Type of assay: functional, organism-based.
For assay [11], the system named is Pseudomonas aeruginosa. In words: Antibacterial activity against Pseudomonas aeruginosa NY219 harboring Pseudomonas aeruginosa PAO1 pmrAB gene by broth dilution method. It counts as functional, organism-based.
For assay [12], the system named is Pseudomonas aeruginosa. In words: Antibacterial activity against Pseudomonas aeruginosa NY215 harboring Pseudomonas aeruginosa PAO1 pmrAB gene by broth dilution method. It counts as functional, organism-based.
The subject of assay [13] is Pseudomonas aeruginosa. The experiment in a line: Antibacterial activity against Pseudomonas aeruginosa PAO1 harboring Pseudomonas aeruginosa PAO1 deltapmrAB::Tc/pAU126 by broth dilution method. It counts as functional, organism-based.
The subject of assay [14] is Pseudomonas aeruginosa. The experiment in a line: Antibacterial activity against Pseudomonas aeruginosa PAO1 harboring deltapmrAB::Tc by broth dilution method. It counts as functional, organism-based.
Assay [15] concerns Pseudomonas aeruginosa. The experiment in a line: Antibacterial activity against Pseudomonas aeruginosa NY217 harboring arnB::TC by broth dilution method. It counts as functional, organism-based.
Assay [16] has as its system Pseudomonas aeruginosa. The experiment in a line: Antibacterial activity against Pseudomonas aeruginosa NY217 harboring Pseudomonas aeruginosa PAO1 phoPQ gene by broth dilution method. It counts as functional, organism-based.
Assay [17] relates to Pseudomonas aeruginosa. In words: Antibacterial activity against Pseudomonas aeruginosa PAO1 harboring Pseudomonas aeruginosa NY217 deltaoprH-phoPQ::Gm/pAU148 by broth dilution method. It counts as functional, organism-based.
Assay [18] relates to Pseudomonas aeruginosa. The experiment in a line: Antibacterial activity against Pseudomonas aeruginosa NY214 harboring Pseudomonas aeruginosa PAO1 pmrAB gene by broth dilution method. Type of assay: functional, organism-based.
In assay [19] the test system is Pseudomonas aeruginosa. In words: Antibacterial activity against Pseudomonas aeruginosa PAO1 harboring Pseudomonas aeruginosa NY219 deltaoprH-phoPQ::Gm/pAU149 by broth dilution method. It counts as functional, organism-based.
Assay [20] relates to Pseudomonas aeruginosa. The experiment in a line: Antibacterial activity against Pseudomonas aeruginosa NY220 harboring Pseudomonas aeruginosa PAO1 pmrAB gene by broth dilution method. Type of assay: functional, organism-based.
Assay [21] has as its system Pseudomonas aeruginosa. In words: Antibacterial activity against Pseudomonas aeruginosa NY215 harboring Pseudomonas aeruginosa PAO1 phoPQ gene by broth dilution method. Type of assay: functional, organism-based.
The subject of assay [22] is Pseudomonas aeruginosa. In words: Antibacterial activity against Pseudomonas aeruginosa NY220 harboring arnB::TC by broth dilution method. It counts as functional, organism-based.
For assay [23], the system named is Pseudomonas aeruginosa. In words: Antibacterial activity against Pseudomonas aeruginosa PAO1 harboring Pseudomonas aeruginosa NY220 deltapmrAB::Tc/pAU154 by broth dilution method. It counts as functional, organism-based.
The test system of assay [24] is Pseudomonas aeruginosa. In words: Antibacterial activity against Pseudomonas aeruginosa PAO1 harboring arnB::TC by broth dilution method. Type of assay: functional, organism-based.
For assay [25], the system named is Pseudomonas aeruginosa. The experiment in a line: Antibacterial activity against Pseudomonas aeruginosa PAO1 harboring deltaoprH-phoPQ::Gm/pUCP18 by broth dilution method. It counts as functional, organism-based.
Assay [26] deals with Pseudomonas aeruginosa. In words: Antibacterial activity against Pseudomonas aeruginosa NY217 harboring pUCP18 by broth dilution method. Type of assay: functional, organism-based.
Assay [27] has as its system Pseudomonas aeruginosa. In words: Antibacterial activity against Pseudomonas aeruginosa NY214 harboring Pseudomonas aeruginosa PAO1 phoPQ gene by broth dilution method. It counts as functional, organism-based.
For assay [28], the system named is Pseudomonas aeruginosa. The experiment in a line: Antibacterial activity against Pseudomonas aeruginosa NY215 harboring pUCP18 by broth dilution method. Type of assay: functional, organism-based.
The subject of assay [29] is Pseudomonas aeruginosa. In words: Antibacterial activity against Pseudomonas aeruginosa NY214 harboring arnB::TC by broth dilution method. Type of assay: functional, organism-based.
Assay [30] has as its system Pseudomonas aeruginosa. In words: Antibacterial activity against Pseudomonas aeruginosa NY214 harboring pUCP18 by broth dilution method. Type of assay: functional, organism-based.
Assay [31] has as its system Pseudomonas aeruginosa. In words: Antibacterial activity against Pseudomonas aeruginosa NY217 harboring Pseudomonas aeruginosa PAO1 pmrAB gene by broth dilution method. It counts as functional, organism-based.
The subject of assay [32] is Pseudomonas aeruginosa. In words: Antibacterial activity against Pseudomonas aeruginosa NY219 harboring Pseudomonas aeruginosa PAO1 phoPQ gene by broth dilution method. It counts as functional, organism-based.
The subject of assay [33] is Pseudomonas aeruginosa. The experiment in a line: Antibacterial activity against Pseudomonas aeruginosa PAO1 harboring Pseudomonas aeruginosa NY215 deltaoprH-phoPQ::Gm/pAU147 by broth dilution method. Type of assay: functional, organism-based.
Assay [34] has as its system Pseudomonas aeruginosa. The experiment in a line: Antibacterial activity against Pseudomonas aeruginosa PAO1 harboring deltaoprH-phoPQ::Gm by broth dilution method. Type of assay: functional, organism-based.
In assay [35] the test system is Pseudomonas aeruginosa. The experiment in a line: Antibacterial activity against Pseudomonas aeruginosa PAO1 harboring Pseudomonas aeruginosa PAO1 deltaoprH-phoPQ::Gm/pAU124 by broth dilution method. It counts as functional, organism-based.
The subject of assay [36] is Pseudomonas aeruginosa. The experiment in a line: Antibacterial activity against Pseudomonas aeruginosa PAO1 harboring Pseudomonas aeruginosa NY214 deltaoprH-phoPQ::Gm/pAU146 by broth dilution method. It counts as functional, organism-based.
For assay [37], the system named is Pseudomonas aeruginosa. In words: Antibacterial activity against Pseudomonas aeruginosa PAO1 harboring deltapmrAB::Tc/pUCP18 by broth dilution method. Type of assay: functional, organism-based.

`CO/N=C(\C(=O)N[C@@H]1C(=O)N2C(C(=O)O)=C(CSc3nc(=O)c(O)nn3C)CS[C@H]12)c1csc(N)n1` [CEFTRIAXONE]: the MIC – broadly, the smallest concentration in the dilution series that meets the test's criterion for growth inhibition – in the assay with Pseudomonas aeruginosa [1] was 32 µg/mL (≈ 57.7 µM); in the assay on Pseudomonas aeruginosa [2] it was 32 µg/mL (≈ 57.7 µM); in the assay on Pseudomonas aeruginosa [3], 32 µg/mL (≈ 57.7 µM); against Pseudomonas aeruginosa [4], 4 µg/mL (≈ 7.21 µM); in the assay with Pseudomonas aeruginosa [5] it was 16 µg/mL (≈ 28.9 µM); against Pseudomonas aeruginosa [6] it was 16 µg/mL (≈ 28.9 µM).
With `O=C(O)c1cn(C2CC2)c2cc(N3CCNCC3)c(F)cc2c1=O` [CIPROFLOXACIN], the MIC in the assay on Pseudomonas aeruginosa [2] was 4 µg/mL (≈ 12.1 µM); in the assay on Pseudomonas aeruginosa [5] it was 1 µg/mL (≈ 3.02 µM).
On to `CC1(C)S[C@@H]2[C@H](NC(=O)C(C(=O)O)c3ccccc3)C(=O)N2[C@H]1C(=O)O` (stereo partly specified) [CARBENICILLIN], for which the minimal inhibitory concentration (MIC) against Pseudomonas aeruginosa [1] is 256 µg/mL (≈ 677 µM); with Pseudomonas aeruginosa [2] it was 256 µg/mL (≈ 677 µM); against Pseudomonas aeruginosa [3] it was over 256 µg/mL; with Pseudomonas aeruginosa [4] it was 64 µg/mL (≈ 169 µM); in the assay on Pseudomonas aeruginosa [5] it was over 256 µg/mL; against Pseudomonas aeruginosa [6], 256 µg/mL (≈ 677 µM).
For the molecule POLYMYXIN B, the MIC in the assay on Pseudomonas aeruginosa [7] came out at 8 µg/mL; against Pseudomonas aeruginosa [8] it was 8 µg/mL; against Pseudomonas aeruginosa [9], 8 µg/mL; in the assay on Pseudomonas aeruginosa [10] it was 0.5 µg/mL; in the assay on Pseudomonas aeruginosa [1] it was 8 µg/mL; with Pseudomonas aeruginosa [11], 1 µg/mL. The minimum inhibitory concentration (MIC) is 0.5 µg/mL in the assay with Pseudomonas aeruginosa [12]; under 0.25 µg/mL against Pseudomonas aeruginosa [13]; 0.25 µg/mL with Pseudomonas aeruginosa [14]; 0.5 µg/mL with Pseudomonas aeruginosa [15]; 1 µg/mL against Pseudomonas aeruginosa [16]; 4 µg/mL in the assay on Pseudomonas aeruginosa [17]. Further, the minimal inhibitory concentration (MIC) in the assay with Pseudomonas aeruginosa [18] stood at 1 µg/mL; with Pseudomonas aeruginosa [19], 4 µg/mL; in the assay on Pseudomonas aeruginosa [2], 8 µg/mL; in the assay with Pseudomonas aeruginosa [20] it was 8 µg/mL; with Pseudomonas aeruginosa [21] it was 0.5 µg/mL; in the assay on Pseudomonas aeruginosa [22], 0.5 µg/mL. In addition, the MIC against Pseudomonas aeruginosa [23] was 4 µg/mL; in the assay with Pseudomonas aeruginosa [24] it was 0.5 µg/mL; against Pseudomonas aeruginosa [25], 0.25 µg/mL; in the assay with Pseudomonas aeruginosa [3], 8 µg/mL; with Pseudomonas aeruginosa [4] it was 0.5 µg/mL; in the assay with Pseudomonas aeruginosa [26] it was 8 µg/mL. The minimum inhibitory concentration (MIC) in the assay on Pseudomonas aeruginosa [27] was 1 µg/mL; in the assay with Pseudomonas aeruginosa [28], 8 µg/mL; against Pseudomonas aeruginosa [29] it was 0.5 µg/mL; with Pseudomonas aeruginosa [30] it was 8 µg/mL; against Pseudomonas aeruginosa [31], 1 µg/mL; with Pseudomonas aeruginosa [32] it was 1 µg/mL. The MIC was found to be 4 µg/mL against Pseudomonas aeruginosa [33]; 0.5 µg/mL with Pseudomonas aeruginosa [34]; 0.25 µg/mL in the assay on Pseudomonas aeruginosa [35]; 8 µg/mL in the assay with Pseudomonas aeruginosa [5]; 8 µg/mL against Pseudomonas aeruginosa [6]; 4 µg/mL against Pseudomonas aeruginosa [36]. In the assay on Pseudomonas aeruginosa [37], this molecule displayed a minimum inhibitory concentration (MIC) of 0.25 µg/mL.
In the case of GENTAMICIN, the MIC against Pseudomonas aeruginosa [1] turned out to be 4 µg/mL; against Pseudomonas aeruginosa [2], 32 µg/mL; against Pseudomonas aeruginosa [3], 4 µg/mL; against Pseudomonas aeruginosa [4] it was 0.25 µg/mL; in the assay with Pseudomonas aeruginosa [5], 4 µg/mL; in the assay with Pseudomonas aeruginosa [6] it was 4 µg/mL.
For `CC1(C)S[C@@H]2[C@H](NC(=O)[C@H](NC(=O)N3CCNC3=O)c3ccccc3)C(=O)N2[C@H]1C(=O)O` [AZLOCILLIN], the MIC with Pseudomonas aeruginosa [1] was 8 µg/mL (≈ 17.3 µM); against Pseudomonas aeruginosa [2], 8 µg/mL (≈ 17.3 µM); in the assay on Pseudomonas aeruginosa [3], 16 µg/mL (≈ 34.7 µM); against Pseudomonas aeruginosa [4], 2 µg/mL (≈ 4.33 µM); in the assay on Pseudomonas aeruginosa [5] it was 16 µg/mL (≈ 34.7 µM); against Pseudomonas aeruginosa [6], 8 µg/mL (≈ 17.3 µM).
As to `CCn1cc(C(=O)O)c(=O)c2ccc(C)nc21` [NALIDIXIC ACID], the minimum inhibitory concentration (MIC) against Pseudomonas aeruginosa [1] was 64 µg/mL (≈ 276 µM); in the assay on Pseudomonas aeruginosa [2], over 256 µg/mL; against Pseudomonas aeruginosa [3] it was over 256 µg/mL; against Pseudomonas aeruginosa [4] it was 64 µg/mL (≈ 276 µM); in the assay with Pseudomonas aeruginosa [5], 64 µg/mL (≈ 276 µM); against Pseudomonas aeruginosa [6], over 256 µg/mL.
As to `NC[C@H]1O[C@H](O[C@H]2[C@H](O)[C@@H](O[C@H]3O[C@H](CO)[C@@H](O)[C@H](N)[C@H]3O)[C@H](N)C[C@@H]2N)[C@H](N)C[C@@H]1O` [TOBRAMYCIN], the MIC against Pseudomonas aeruginosa [1] amounted to 2 µg/mL (≈ 4.28 µM); in the assay with Pseudomonas aeruginosa [2], 2 µg/mL (≈ 4.28 µM); against Pseudomonas aeruginosa [3] it was 8 µg/mL (≈ 17.1 µM); in the assay on Pseudomonas aeruginosa [4], 0.25 µg/mL (≈ 0.535 µM); against Pseudomonas aeruginosa [5] it was 1 µg/mL (≈ 2.14 µM); in the assay on Pseudomonas aeruginosa [6], 2 µg/mL (≈ 4.28 µM).
On to `CC1(C)S[C@@H]2[C@H](NC(=O)[C@H](C(=O)O)c3ccsc3)C(=O)N2[C@H]1C(=O)O` [TICARCILLIN], for which the minimum inhibitory concentration (MIC) came to 32 µg/mL (≈ 83.2 µM) with Pseudomonas aeruginosa [1]; 32 µg/mL (≈ 83.2 µM) against Pseudomonas aeruginosa [2]; 32 µg/mL (≈ 83.2 µM) in the assay with Pseudomonas aeruginosa [3]; 8 µg/mL (≈ 20.8 µM) in the assay with Pseudomonas aeruginosa [4]; 32 µg/mL (≈ 83.2 µM) in the assay with Pseudomonas aeruginosa [5]; 32 µg/mL (≈ 83.2 µM) against Pseudomonas aeruginosa [6].

Values taken from ChEMBL document CHEMBL1649275, “Alterations in two-component regulatory systems of phoPQ and pmrAB are associated with polymyxin B resistance in clinical isolates of Pseudomonas aeruginosa” (2009).
